Experimental data taken from patent publication US8361998B2, “Compounds and their use as IKACh blockers” (AstraZeneca AB, priority 2010, dated 2013).
Like-named read-outs stand apart in the source and are kept apart here.

Biological target: T1, human cardiac ion channel proteins hKir3.1/Kir3.4 (Homo sapiens, UniProt P48544+P48549)
T1 construct: expressed in transfected cells
T1 sequence (P48549 1-501): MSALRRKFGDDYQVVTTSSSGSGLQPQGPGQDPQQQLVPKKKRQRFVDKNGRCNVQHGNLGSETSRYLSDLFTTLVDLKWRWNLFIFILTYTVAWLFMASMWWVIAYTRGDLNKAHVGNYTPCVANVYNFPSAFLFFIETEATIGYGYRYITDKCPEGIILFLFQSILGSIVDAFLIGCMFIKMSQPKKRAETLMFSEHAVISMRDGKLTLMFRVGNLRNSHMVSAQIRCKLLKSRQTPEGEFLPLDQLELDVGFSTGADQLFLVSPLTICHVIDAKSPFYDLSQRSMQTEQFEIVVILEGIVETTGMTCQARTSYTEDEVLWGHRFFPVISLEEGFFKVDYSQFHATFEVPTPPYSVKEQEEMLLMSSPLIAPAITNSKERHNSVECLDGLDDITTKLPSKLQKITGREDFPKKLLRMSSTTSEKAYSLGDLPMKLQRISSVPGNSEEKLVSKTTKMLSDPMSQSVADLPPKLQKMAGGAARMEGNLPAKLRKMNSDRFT
T1 sequence (P48544 1-419): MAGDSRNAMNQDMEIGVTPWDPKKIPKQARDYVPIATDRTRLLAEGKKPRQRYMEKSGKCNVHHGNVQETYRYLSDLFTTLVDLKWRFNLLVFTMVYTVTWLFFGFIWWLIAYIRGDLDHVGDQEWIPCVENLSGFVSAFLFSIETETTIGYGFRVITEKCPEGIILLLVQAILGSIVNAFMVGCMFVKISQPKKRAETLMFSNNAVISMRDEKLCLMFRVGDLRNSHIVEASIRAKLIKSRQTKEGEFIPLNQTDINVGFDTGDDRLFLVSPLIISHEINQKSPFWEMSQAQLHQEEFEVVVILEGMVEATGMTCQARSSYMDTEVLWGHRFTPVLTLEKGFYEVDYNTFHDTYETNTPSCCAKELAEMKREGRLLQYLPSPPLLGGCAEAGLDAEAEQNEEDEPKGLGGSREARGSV
Assay: Atomic Absorption Screening (AAS) Rb efflux assay of hKir3.1/Kir3.4 block, carbachol/high K+ stimulated, 10-pt or 7-pt CR
Assay type: cell-based
Outline: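 CHO-K1 cells stably co-expressing human Kir3.1/Kir3.4 were Rb-loaded for 3 h at 37° C, preincubated with compound 5 min at RT, then stimulated 10 min with 10 μM carbachol plus 20 mM KCl (final). Supernatant Rb was measured by atomic absorption. Compounds ran at 0.003–67 μmol/L (10-pt) or 0.037–27 μmol/L (7-pt), threefold dilutions; IC50s are means of >4 or >3 replicates respectively.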

[1] = 7-pt CR (0.037 to 27 μmol/L), AAS Rb efflux, CHO-K1 cells expressing hKir3.1/Kir3.4, mean of >3 replicates, read-out: IKACh IC50 7-pt CR, AAS
[2] = 10-pt CR (0.003 to 67 μmol/L), AAS Rb efflux, CHO-K1 cells expressing hKir3.1/Kir3.4, mean of >4 replicates, read-out: IKACh IC50 10-pt CR, AAS
[3] = printed as IC50 >67 μM in the 10-pt CR assay or IC50 >27 μM in the 7-pt CR assay, assay format per compound not stated, read-out: IC50

SMILES	IC50 [2]	further results
CC(C)[C@@H](CN1CCCC1)N(C)C(=O)c1cccc(C(F)(F)F)c1 [Example 16.10, (S)—N-Methyl-N-(3-methyl-1-(pyrrolidin-1-yl)butan-2-yl)-3-(trifluoromethyl)benzamide]		IC50 [1]: 2600 nM
CN(C(=O)c1ccc(C#N)cc1)[C@H](CN1CC(O)C1)C1CCCCC1 [Example 36.1, 4-cyano-N-[(1S)-1-cyclohexyl-2-(3-hydroxyazetidin-1-yl)ethyl]-N-methylbenzamide]	410 nM	
CCCC[C@@H](CN1CC(O)C1)N(C)C(=O)c1cccc(C(F)F)c1 [Example 33.10, 3-(Difluoromethyl)-N-[(2S)-1-(3-hydroxyazetidin-1-yl)hexan-2-yl]-N-methylbenzamide]	1100 nM	
CC(C)[C@@H](CN1CC[C@H](O)C1)N(C)C(=O)c1ccc(F)cc1C(F)(F)F [Example 16.46, 4-Fluoro-N—((S)-1-((S)-3-hydroxypyrrolidin-1-yl)-3-methylbutan-2-yl)-N-methyl-2-(trifluoromethyl)benzamide]		IC50 [1]: 19000 nM
CC(C)[C@@H](CN1CC[C@H](O)C1)N(C)C(=O)c1cc(F)cc(F)c1F [2,3,5-Trifluoro-N-[(1S)-1-{[(3S)-3-hydroxypyrrolidin-1-yl]methyl}-2-methylpropyl]-N-methylbenzamide]		IC50 [3]: > 27000 nM
CCC[C@@H](CN1CC(O)C1)N(C)C(=O)c1ccc(F)c(Cl)c1 [Example 8.3, (S)-3-Chloro-4-fluoro-N-(1-(3-hydroxyazetidin-1-yl)pentan-2-yl)-N-methylbenzamide]	800 nM	
Cc1ccc(C(=O)N(C)[C@H](CN2CCCC2)C(C)C)cc1 [Example 16.14, (S)—N,4-Dimethyl-N-(3-methyl-1-(pyrrolidin-1-yl)butan-2-yl)benzamide]		IC50 [1]: 6700 nM
CC(C)[C@@H](CN1CCCC(F)(F)C1)N(C)C(=O)c1ccc(F)c(Cl)c1 [Example 16.1, (S)-3-Chloro-N-(1-(3,3-difluoropiperidin-1-yl)-3-methylbutan-2-yl)-4-fluoro-N-methylbenzamide]	17000 nM	
CC(C)[C@@H](CN1CCCC1)N(C)C(=O)c1ccc(Cl)cc1Cl [Example 16.47, (S)-2,4-Dichloro-N-methyl-N-(3-methyl-1-(pyrrolidin-1-yl)butan-2-yl)benzamide]		IC50 [1]: 560 nM
CC(C)[C@@H](CN1CCCC1)N(C)C(=O)c1cccc(OC(F)(F)F)c1 [Example 16.16, (S)—N-Methyl-N-(3-methyl-1-(pyrrolidin-1-yl)butan-2-yl)-3-(tri-fluoromethoxy)benzamide]		IC50 [1]: 2600 nM
CC(C)[C@@H](CN1CCC(O)CC1)N(C)C(=O)c1ccc(Cl)cc1 [Example 27, (S)-4-Chloro-N-(1-(4-hydroxypiperidin-1-yl)-3-methylbutan-2-yl)-N-methylbenzamide]	1100 nM	
CC(C)[C@@H](CN1CCCC1)N(C)C(=O)c1ccc(Cl)c(Cl)c1 [Example 16.51, (S)-3,4-Dichloro-N-methyl-N-(3-methyl-1-(pyrrolidin-1-yl)butan-2-yl)benzamide]		IC50 [1]: 460 nM
CN(C(=O)c1ccc(Cl)cc1)[C@H](CN1CCC1)C1CC1 [Example 4.2, (S)-N-(2-(Azetidin-1-yl)-1-cyclopropylethyl)-4-chloro-N-methylbenzamide]	2800 nM	
COc1ccc(C(=O)N(C)C(CN2CC(O)C2)C2CCCC2)cc1 (single isomer, unassigned) [32.2, isomer 1]	580 nM	
CC(C)[C@H](CN1CCCC1)N(C)C(=O)c1ccc(Cl)cc1Cl [Example 16.58, (R)-2,4-Dichloro-N-methyl-N-(3-methyl-1-(pyrrolidin-1-yl)butan-2-yl)benzamide]		IC50 [1]: 5800 nM
CCC[C@@H](CN1CC(O)C1)N(C)C(=O)c1ccc(Cl)c(C)c1 [Example 8.4, (S)-4-Chloro-N-(1-(3-hydroxyazetidin-1-yl)pentan-2-yl)-N,3-di-methylbenzamide]	200 nM	
Cc1c(F)cccc1C(=O)N(C)[C@H](CN1CCCCC1)C(C)C [Example 16.38, (S)-3-Fluoro-N,2-dimethyl-N-(3-methyl-1-(piperidin-1-yl)butan-2-yl)benzamide]		IC50 [1]: 17000 nM

SMILES	IC50 [2]	further results
Cc1cc(C(=O)N(C)[C@@H](CN2CC(O)C2)C2CCC2)ccc1F [Example 35.4, N-[(1R)-1-Cyclobutyl-2-(3-hydroxyazetidin-1-yl)ethyl]-4-fluoro-N,3-dimethylbenzamide]	660 nM	
CCc1ccc(C(=O)N(C)[C@H](CN2CC(O)C2)[C@@H](C)CC)cc1 [Example 29.3, 4-Ethyl-N-((2S,3S)-1-(3-hydroxyazetidin-1-yl)-3-methylpentan-2-yl)-N-methylbenzamide]	220 nM	
CC(C)[C@@H](CN1CCCC(F)(F)C1)N(C)C(=O)c1ccc(Br)cc1 [Example 16.5, (S)-4-Bromo-N-(1-(3,3-difluoropiperidin-1-yl)-3-methylbutan-2-yl)-N-methyl-benzamide]	11000 nM	
COc1ccc(C(=O)N(C)[C@@H](CN2CC(O)C2)C2CCC2)cc1F [Example 35.13, N-[(1R)-1-Cyclobutyl-2-(3-hydroxyazetidin-1-yl)ethyl]-3-fluoro-4-methoxy-N-methylbenzamide]	11000 nM	
CC(C)[C@@H](CN1CCCCC1)N(C)C(=O)c1ccc(OC(F)(F)F)cc1 [N-Methyl-N-[(1S)-2-methyl-1-(piperidin-1-ylmethyl)propyl]-4-(trifluoromethoxy)benzamide]		IC50 [3]: > 27000 nM
CC[C@H](C)[C@@H](CN1CCCC1)N(C)C(=O)c1ccc(F)c(C)c1 [Example 2.5, 4-Fluoro-N,3-dimethyl-N-((2S,3S)-3-methyl-1-(pyrrolidin-1-yl)pentan-2-yl)benzamide]	2700 nM	
CN(C(=O)c1ccc(F)c(Cl)c1)[C@H](CN1CC(O)(C2CC2)C1)C1CC1 [Example 9.2, (S)-3-Chloro-N-(1-cyclopropyl-2-(3-cyclopropyl-3-hydroxyazetidin-1-yl)ethyl)-4-fluoro-N-methylbenzamide]	1200 nM	
Cc1cc(C(=O)N(C)[C@H](CN2CC[C@H](O)C2)C(C)C)ccc1F [Example 16.40, 4-Fluoro-N-[(1S)-1-{[(3S)-3-hydroxypyrrolidin-1-yl]methyl}-2-methylpropyl]-N,3-dimethylbenzamide]		IC50 [1]: 3200 nM
CN(C(=O)c1ccc(Br)cc1)[C@H](CN1CCCC1)C(C)(C)C [Example 2.2, (S)-4-Bromo-N-(3,3-dimethyl-1-(pyrrolidin-1-yl)butan-2-yl)-N-methylbenzamide]	14000 nM	
Cc1cc(C(=O)N(C)[C@H](CN2C[C@H](O)[C@@H](O)C2)C(C)C)ccc1F [Example 8.12, N-((S)-1-((3S,4S)-3,4-Dihydroxypyrrolidin-1-yl)-3-methylbutan-2-yl)-4-fluoro-N,3-dimethylbenzamide]	4300 nM	
Cc1cc(C(=O)N(C)[C@@H](CN2CCC(O)CC2)C(C)C)ccc1F [Example 25, (R)-4-Fluoro-N-(1-(4-hydroxypiperidin-1-yl)-3-methylbutan-2-yl)-N,3-dimethylbenzamide]	17000 nM	
CC(C)[C@@H](CN1CC(C)(O)C1)N(C)C(=O)c1ccc(F)c(F)c1 [(S)-3,4-Difluoro-N-(1-(3-hydroxy-3-methylazetidin-1-yl)-3-methylbutan-2-yl)-N-methylbenzamide]		IC50 [3]: > 27000 nM
CO[C@H](C)[C@@H](CN1CCCC1)N(C)C(=O)c1cccc(C)c1 [Example 3.2, N-((2R,3R)-3-Methoxy-1-(pyrrolidin-1-yl)butan-2-yl)-N,3-dimethylbenzamide]	20000 nM	
CCC[C@H](CN1CC(O)C1)N(C)C(=O)c1ccc(Cl)cc1 [Example 37, 4-Chloro-N-[(2R)-1-(3-hydroxyazetidin-1-yl)pentan-2-yl]-N-methylbenzamide]	9700 nM	
CC[C@@H](CN1CC(O)C1)N(C)C(=O)c1ccc(Br)cc1 [Example 42, (S)-4-Bromo-N-(1-(3-hydroxyazetidin-1-yl)butan-2-yl)-N-methylbenzamide]	4000 nM	
CCC[C@@H](CN1C[C@H](O)[C@H]1C)N(C)C(=O)c1ccc(F)c(F)c1 (relative stereo) [Example 43.3, 3,4-Difluoro-N—((S)-1-((2R*,3S*)-3-hydroxy-2-methylazetidin-1-yl)pentan-2-yl)-N-methylbenzamide]	2700 nM	
